A word on the IC50: it is the concentration at which inhibition is half-maximal.

The assay concerns the target T1, human OX2R (Homo sapiens, UniProt O43614).
T1 construct: expressed in transfected cells; host or cells: CHO (Chinese hamster ovary) cells, grown under G418 selection
T1 sequence (O43614 1-444): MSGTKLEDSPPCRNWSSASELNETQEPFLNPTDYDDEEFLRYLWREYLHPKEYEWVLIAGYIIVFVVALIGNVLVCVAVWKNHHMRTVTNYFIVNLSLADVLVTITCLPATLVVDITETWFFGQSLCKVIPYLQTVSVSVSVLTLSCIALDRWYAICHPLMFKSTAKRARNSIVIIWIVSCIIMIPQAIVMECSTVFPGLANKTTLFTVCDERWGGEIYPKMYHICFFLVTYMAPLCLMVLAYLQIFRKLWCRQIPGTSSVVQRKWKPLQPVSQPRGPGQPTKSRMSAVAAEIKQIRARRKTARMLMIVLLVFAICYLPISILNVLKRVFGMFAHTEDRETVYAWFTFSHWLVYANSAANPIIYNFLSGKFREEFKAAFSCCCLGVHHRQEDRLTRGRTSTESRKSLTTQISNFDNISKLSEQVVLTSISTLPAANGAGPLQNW
Nature of the assay: IPOne (IP-1) orexin receptor agonist assay in CHO cells expressing human OX2R. The class given is cell-based. The conditions noted are these: IPOne assay, CHO cells expressing human OX2R, 2 hours incubation; read-out: hoX2R_IP IC50. An outline of the steps: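 CHO cells with human OX2R treated 2 h at 37 °C with 10-point ½-log compound dilutions in stimulation buffer; IP-1 accumulation read by HTRF (665/620 nm) after 60 min detection. EC50 from four-parameter fit; % effect versus a 1 uM reference agonist.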

As for `C[C@@H]1C[C@H](NS(C)(=O)=O)[C@H](CO[C@H]2CC[C@@]3(c4ncc(F)cn4)C[C@H]3C2)N1C(=O)OCC1(C)CC1(F)F` (stereo partly drawn) [Example 57, (2,2-difluoro-1-methylcyclopropyl)methyl (2R,3S,5R)-2-((((1S,3S,6R)-6-(5-fluoropyrimidin-2-yl)bicyclo[4.1.0]heptan-3-yl)oxy)methyl)-5-methyl-3-(methylsulfonamido)pyrrolidine-1-carboxylate], the IC50 was determined as 1.4 nM.
Next, `CC(F)COC(=O)N1[C@H](C)C[C@H](NS(C)(=O)=O)[C@@H]1CO[C@H]1CC[C@@]2(c3ncc(F)cn3)C[C@H]2C1` (stereo partly drawn) [Example 58, 2-fluoropropyl (2R,3S,5R)-2-((((1S,3S,6R)-6-(5-fluoropyrimidin-2-yl)bicyclo[4.1.0]heptan-3-yl)oxy)methyl)-5-methyl-3-(methylsulfonamido)pyrrolidine-1-carboxylate]: 2 nM.
The value for `C[C@@H]1C[C@H](NS(C)(=O)=O)[C@H](CO[C@H]2CC[C@@]3(c4ncc(F)cn4)C[C@H]3C2)N1C(=O)OCC1CC1(F)F` (stereo partly drawn) [Example 59, (2,2-difluorocyclopropyl)methyl (2R,3S,5R)-2-((((1S,3S,6R)-6-(5-fluoropyrimidin-2-yl)bicyclo[4.1.0]heptan-3-yl)oxy)methyl)-5-methyl-3-(methylsulfonamido)pyrrolidine-1-carboxylate] was 0.71 nM.
The value for `CCC(F)(F)COC(=O)N1[C@H](C)C[C@H](NS(C)(=O)=O)[C@@H]1CO[C@H]1CC[C@@]2(c3ncc(F)cn3)C[C@H]2C1` [Example 60, 2,2-difluorobutyl (2R,3S,5R)-2-((((1S,3S,6R)-6-(5-fluoropyrimidin-2-yl)bicyclo[4.1.0]heptan-3-yl)oxy)methyl)-5-methyl-3-(methylsulfonamido)pyrrolidine-1-carboxylate] was 1.4 nM; that for `C[C@@H]1C[C@H](NS(C)(=O)=O)[C@H](CO[C@H]2CC[C@@]3(c4ncc(F)cn4)C[C@H]3C2)N1C(=O)OCC1(F)CC1` [Example 61, (1-fluorocyclopropyl)methyl (2R,3S,5R)-2-((((1S,3S,6R)-6-(5-fluoropyrimidin-2-yl)bicyclo[4.1.0]heptan-3-yl)oxy)methyl)-5-methyl-3-(methylsulfonamido)pyrrolidine-1-carboxylate] was 2.3 nM; that for `C[C@@H]1C[C@H](NS(C)(=O)=O)[C@H](CO[C@H]2CC[C@@]3(c4ncc(F)cn4)C[C@H]3C2)N1C(=O)OCCF` [Example 62, 2-Fluoroethyl (2R,3S,5R)-2-((((1S,3S,6R)-6-(5-fluoropyrimidin-2-yl)bicyclo[4.1.0]heptan-3-yl)oxy)methyl)-5-methyl-3-(methylsulfonamido)pyrrolidine-1-carboxylate] was 1.7 nM.
For the molecule `CC(OC(=O)N1[C@H](C)C[C@H](NS(C)(=O)=O)[C@@H]1CO[C@H]1CC[C@@]2(c3ncc(F)cn3)C[C@H]2C1)C(F)F` (stereo partly drawn) [Example 63, 1,1-Difluoropropan-2-yl (2R,3S,5R)-2-((((1S,3S,6R)-6-(5-fluoropyrimidin-2-yl)bicyclo[4.1.0]heptan-3-yl)oxy)methyl)-5-methyl-3-(methylsulfonamido)pyrrolidine-1-carboxylate], the IC50 worked out at 0.77 nM.
Next, `C[C@@H]1C[C@H](NS(C)(=O)=O)[C@H](CO[C@H]2CC[C@@]3(c4ncc(F)cn4)C[C@H]3C2)N1C(=O)OCC(C)(F)F` [Example 64, 2,2-difluoropropyl (2R,3S,5R)-2-((((1S,3S,6R)-6-(5-fluoropyrimidin-2-yl)bicyclo[4.1.0]heptan-3-yl)oxy)methyl)-5-methyl-3-(methylsulfonamido)pyrrolidine-1-carboxylate]: 2.1 nM; `C[C@@H]1C[C@H](NS(C)(=O)=O)[C@H](CO[C@H]2CC[C@@]3(c4ncc(F)cn4)C[C@H]3C2)N1C(=O)OCC(F)(F)F` [Example 65, 2,2,2-trifluoroethyl (2R,3S,5R)-2-((((1S,3S,6R)-6-(5-fluoropyrimidin-2-yl)bicyclo[4.1.0]heptan-3-yl)oxy)methyl)-5-methyl-3-(methylsulfonamido)pyrrolidine-1-carboxylate]: 1.6 nM; `C[C@@H]1C[C@H](NS(C)(=O)=O)[C@H](CO[C@H]2CC[C@@]3(c4ncc(F)cn4)C[C@H]3C2)N1C(=O)OCC(F)F` [Example 66, 2,2-difluoroethyl (2R,3S,5R)-2-((((1S,3S,6R)-6-(5-fluoropyrimidin-2-yl)bicyclo[4.1.0]heptan-3-yl)oxy)methyl)-5-methyl-3-(methylsulfonamido)pyrrolidine-1-carboxylate]: 0.6 nM.
The value for `COC(=O)N1[C@H](C)C[C@H](NS(C)(=O)=O)[C@@H]1COC1CCC2(c3nc4c(F)ccc(F)c4s3)CC2C1` (stereo partly drawn) [Example 71, methyl (2R,3S,5R)-2-(((6-(4,7-difluorobenzo[d]thiazol-2-yl)bicyclo[4.1.0]heptan-3-yl)oxy)methyl)-5-methyl-3-(methylsulfonamido)pyrrolidine-1-carboxylate] was 832 nM.
The value for `COC(=O)N1[C@H](C)C[C@H](NS(C)(=O)=O)[C@@H]1COC1CCC2(c3ncc(Cl)c(C(F)(F)F)n3)CC2C1` (stereo partly drawn) [Example 72, methyl (2R,3S,5R)-2-(((6-(5-chloro-4-(trifluoromethyl)pyrimidin-2-yl)bicyclo[4.1.0]heptan-3-yl)oxy)methyl)-5-methyl-3-(methylsulfonamido)pyrrolidine-1-carboxylate] was 187 nM; that for `COC(=O)N1[C@H](C)C[C@H](NS(C)(=O)=O)[C@@H]1COC1CCC2(c3ncc(F)c(C(F)F)n3)CC2C1` (stereo partly drawn) [Example 73, methyl (2R,3S,5R)-2-(((6-(4-(difluoromethyl)-5-fluoropyrimidin-2-yl)bicyclo[4.1.0]heptan-3-yl)oxy)methyl)-5-methyl-3-(methylsulfonamido)pyrrolidine-1-carboxylate] was 220 nM.
Turning to `COC(=O)N1[C@H](C)C[C@H](NS(C)(=O)=O)[C@@H]1COC1CCC2(c3ncc(F)c(C4CC4)n3)CC2C1` (stereo partly drawn) [Example 74, methyl (2R,3S,5R)-2-(((6-(4-cyclopropyl-5-fluoropyrimidin-2-yl)bicyclo[4.1.0]heptan-3-yl)oxy)methyl)-5-methyl-3-(methylsulfonamido)pyrrolidine-1-carboxylate], the IC50 was found to be 299 nM.
Next, `COC(=O)N1[C@H](C)C[C@H](NS(C)(=O)=O)[C@@H]1COC1CCC2(c3ncc(OC(F)F)c(C)n3)CC2C1` (stereo partly drawn) [Example 75, methyl (2R,3S,5R)-2-(((6-(5-(difluoromethoxy)-4-methylpyrimidin-2-yl)bicyclo[4.1.0]heptan-3-yl)oxy)methyl)-5-methyl-3-(methylsulfonamido)pyrrolidine-1-carboxylate]: 257 nM; `COC(=O)N1[C@H](C)C[C@H](NS(C)(=O)=O)[C@@H]1COC1CCC2(c3ncc(F)c(OC)n3)CC2C1` (stereo partly drawn) [Example 76, methyl (2R,3S,5R)-2-(((6-(5-fluoro-4-methoxypyrimidin-2-yl)bicyclo[4.1.0]heptan-3-yl)oxy)methyl)-5-methyl-3-(methylsulfonamido)pyrrolidine-1-carboxylate]: 51.2 nM; `COC(=O)N1[C@H](C)C[C@H](NS(C)(=O)=O)[C@@H]1COC1CCC2(c3ncc(F)c(C)n3)CC2C1` (stereo partly drawn) [Example 77, methyl (2R,3S,5R)-2-(((6-(5-fluoro-4-methylpyrimidin-2-yl)bicyclo[4.1.0]heptan-3-yl)oxy)methyl)-5-methyl-3-(methylsulfonamido)pyrrolidine-1-carboxylate]: 736 nM.
Next, `CC(C)OC(=O)N1[C@H](C)C[C@H](NS(=O)(=O)C(F)F)[C@@H]1COC1CCC2(c3ncc(Cl)cn3)CC2C1` (stereo partly drawn) [Example 82, isopropyl (2R,3S,5R)-2-(((6-(5-chloropyrimidin-2-yl)bicyclo[4.1.0]heptan-3-yl)oxy)methyl)-3-((difluoromethyl)sulfonamido)-5-methylpyrrolidine-1-carboxylate]: 10.8 nM.
As for `COC(=O)N1[C@H](C)C[C@H](NS(=O)(=O)CF)[C@@H]1COC1CCC2(c3ncc(F)c(OC)n3)CC2C1` (stereo partly drawn) [Example 85, methyl (2R,3S,5R)-2-(((6-(5-fluoro-4-methoxypyrimidin-2-yl)bicyclo[4.1.0]heptan-3-yl)oxy)methyl)-3-((fluoromethyl)sulfonamido)-5-methylpyrrolidine-1-carboxylate], the 50% inhibitory concentration (IC50) came to 25.2 nM.
The value for `COC(=O)N1[C@H](C)C[C@H](NS(=O)(=O)CF)[C@@H]1COC1CCC2(c3ncc(Cl)c(OC)n3)CC2C1` (stereo partly drawn) [Example 86, methyl (2R,3S,5R)-2-(((6-(5-chloro-4-methoxypyrimidin-2-yl)bicyclo[4.1.0]heptan-3-yl)oxy)methyl)-3-((fluoromethyl)sulfonamido)-5-methylpyrrolidine-1-carboxylate] was 9.9 nM; that for `COC(=O)N1[C@H](C)C[C@H](NS(=O)(=O)CF)[C@@H]1COC1CCC2(c3ncc(Br)cn3)CC2C1` (stereo partly drawn) [Example 89, methyl (2R,3S,5R)-2-(((6-(5-bromopyrimidin-2-yl)bicyclo[4.1.0]heptan-3-yl)oxy)methyl)-3-((fluoromethyl)sulfonamido)-5-methylpyrrolidine-1-carboxylate] was 1 nM.

Source of the values: US20230365533A1, “BICYCLOHEPTANE PYRROLIDINE OREXIN RECEPTOR AGONISTS” (MERCK SHARP & DOHME CORP., priority 2021, published 2023).
